# Reference: publication PMC2290058 (The Journal of Cell Biology, 1992)
# Columns and labels:
# [1] = tested on: A375SM human melanoma cells; test: Cytotoxicity check of treatments; format: cell-based; conditions: trypan blue exclusion; 3H-TdR or [35S]methionine incorporation; not shown
# alpha4 integrin subunit = test: Flow cytometry, cell surface expression of alpha4 integrin after treatment; format: cell-based, human; conditions: 1 mM xyloside 24 h (Fig. 2) or chondroitinase ABC (not shown); mAb P4C2
# beta1 integrin subunit = test: Flow cytometry, cell surface expression of beta1 integrin after treatment; format: cell-based, human; conditions: 1 mM xyloside 24 h (Fig. 2) or chondroitinase ABC (not shown); mAb P4C10
# [2] = tested on: A375SM human melanoma cells; test: Promotion of melanoma cell adhesion to coated substrata; format: cell-based; conditions: for amount of coated ligand that promoted half maximal cell adhesion: peptide/OVA conjugate on Immulon 1 polystyrene wells, 30-min assay
# [3] = earlier work, ref McCarthy et al., 1988a, 1990, Haugen et al.; cited from earlier work
# anti-FN-C/H-III IgG = test: ELISA of purified anti-FN-C/H-III IgG; format: binding, rabbit; conditions: coated substrata; not shown
# [4] = tested on: purified melanoma cell CSPG; test: Binding of purified melanoma CSPG or CS to peptide/OVA affinity columns; parameters: species or system human
# [5] = tested on: A375SM human melanoma cells; format: cell-based
# [6] = tested on: A375SM human melanoma cells; format: cell-based; conditions: for effect of ctDX (alphaDX) on cell adhesion to peptide: 1 mM inactive analogue, FN-C/H-III Fig. 5A, others not shown
# [7] = target: CSPG binding to 33-kD fragment; parameters: species or system human; conditions: inhibitor 500 ug/ml, 2 h, 4°C; CSPG about 7,000 dpm; buffer control <50
# [8] = target: tryptic/catheptic 33-kD carboxyl-terminal heparin binding fragment of human plasma fibronectin A-chains (human); test: ligand affinity column chromatography, competition
# [9] = wells coated with 100 nmole FN-C/H-III/OVA (Fig. 5A)
compound,measurement,setting,value
"O=[N+]([O-])c1ccc(O[C@@H]2OC[C@@H](O)[C@H](O)[C@H]2O)cc1 [/3DX, p-nitrophenyl-/3-o-xylopyranoside]",cytotoxic effect as cause of the inhibition of cell adhesion,[1],not due to cytotoxic
same,cell surface alpha4 integrin level compared to untreated controls,alpha4 integrin subunit,identical
same,cell surface beta1 integrin level compared to untreated controls,beta1 integrin subunit,identical
"O=[N+]([O-])c1ccc(O[C@H]2OC[C@@H](O)[C@H](O)[C@H]2O)cc1 [ctDX, p-Nitrophenyl-ct-o-xylopyranoside]",cytotoxic effect as cause of the inhibition of cell adhesion,[1],not due to cytotoxic
KNNQKSEPLIGRKKT [FN-C/H-II],amount of coated ligand that promoted half maximal cell adhesion,[2],20 nmol
same,heparin binding,[3],bind heparin
same,recognition by anti-FN-C/H-III IgG in ELISA,anti-FN-C/H-III IgG,did not recognize
same,CSPG binding affinity compared with FN-C/H-III,"[4]; affinity column, Discussion",lower affinity than that observed for FN-C/H-III
same,binding of purified CSPG to peptide affinity column,"[4]; peptide/OVA column, applied in 0.05 M NaCl (Fig. 7)",bound purified CSPG
same,effect of anti-alpha5 integrin mAb P1D6 on cell adhesion to peptide,"[5]; P1D6 (Fig. 8), mean of triplicate",did not inhibit
same,inhibition of cell adhesion to peptide by anti-alpha4 integrin mAb P4C2,"[5]; P4C2, not shown",50-60%
same,effect of ctDX (alphaDX) on cell adhesion to peptide,[6],resistant
same,inhibition of cell adhesion by chondroitinase ABC or /3DX,"[6]; approximate, stated in text for chondroitinase ABC or /3DX",~ 50%
"OVA/OVA: ovalbumin coupled to ovalbumin, control conjugate",CSPG in flow through of 33-kD fragment affinity column,[7],123 dpm
YRVRVTPKEKTGPMKE [FN-C/H-III],promotion of melanoma cell adhesion,"[2]; FN-C/H-III/OVA coated wells, 30-min assay (Fig. 4A)",promoted melanoma cell adhesion
same,amount of coated ligand that promoted half maximal cell adhesion,[2],100 nmol
same,recognition by anti-FN-C/H-III IgG in ELISA,anti-FN-C/H-III IgG,specifically recognized
same,effect of anti-alpha4 integrin mAb P4C2 on cell adhesion to peptide,"[5]; P4C2, FN-C/H-III coated substrata",did not inhibit cell adhesion
same,effect of /3DX on cell adhesion to FN-C/H-III,"[6]; 1 mM /3DX, wells coated with 100 nmole FN-C/H-III/OVA (Fig. 5A)",inhibited
same,effect of ctDX (alphaDX) on cell adhesion to peptide,[6],not by heparitinase or t~DX
same,effect of chondroitinase ABC on cell adhesion to FN-C/H-III,[6]; [9],inhibited
same,effect of heparitinase on cell adhesion to FN-C/H-III,[6]; [9],not by heparitinase
cell surface chondroitin sulfate proteoglycan (CSPG) purified from A375SM human melanoma cells,"radioactivity bound to the 33-kD fragment column, buffer alone",[8],6980 dpm
chondroitinase ABC,cytotoxic effect as cause of the inhibition of cell adhesion,[1],not due to cytotoxic
same,cell surface alpha4 integrin level compared to untreated controls,alpha4 integrin subunit,identical
same,cell surface beta1 integrin level compared to untreated controls,beta1 integrin subunit,identical
